Reference: patent US20150322049A1, “LEUKOTRIENE PATHWAY ANTAGONISTS FOR THE TREATMENT OF DEMENTIA, COGNITIVE DEFICITS IN PARKINSON'S DISEASE AND/OR LEARNING AND MEMORY DEFICIENCIES IN PARKINSON'S DISEASE” (priority 2012, published 2015)
Like-named read-outs stand apart in the source and are kept apart here.

Legend:
[1] = tested on: CysLT1R-mediated amyloid-beta generation; details: cited from earlier work
[2] = tested on: Alzheimer's disease patients; details: cited from earlier work
[3] = tested on: neural progenitor cells (NPC); details: cited from earlier work; for influence on the proliferation of NPCs: treatment of NPCs with leukotriene
[4] = Body weight on day 1 and day 42 of treatment; type: in vivo, rat; details: young and old rats, 10 mg kg^-1 p.o. daily
Procedure: For the analysis of cell survival and cell differentiation, all rats received intraperitoneal injections of BrdU (Sigma, Germany) at 50 mg kg^−1 of body weight dissolved in 0.9% saline solution on day 12, 13, 14 and 15.
GPR17 is highly expressed in food-intake-regulating Agrp Neurons, and intraventricular infusion of GPR17 agonists elevates food intake (Ren, 2012, Cell, 8; 149(6):1314-26). […] Therefore, each rat was weighed at the beginning of the experiment (day 1) and directly before the perfusion (day 42).

[5] = tested on: young rats; details: intraperitoneal, combination treatment with rofecoxib; cited from earlier work
[6] = tested on: neural stem cell (NSC); details: cited from earlier work

## pranlukast
[1]; 3 month old mice, injected bilaterally 2.5 mm below the dura
  leukotriene D4-induced increase in amyloid-beta generation: inhibited
[1]; mice, sub-dura injection
  learning impairment and memory loss caused by leukotriene D4 treatment: improves

## COc1ccc2c(c1)c(CC(=O)O)c(C)n2C(=O)c1ccc(Cl)cc1 [indomethacin]
[2]
  mental functions: stabilize mental functions

## CCCCC/C=C\C\C=C/C=C/C=C/[C@@H](SC[C@H](NC(=O)CC[C@H](N)C(=O)O)C(=O)NCC(=O)O)[C@@H](O)CCCC(=O)O [Leukotriene C4]
[3]
  influence on the proliferation of NPCs: no influence

## CC(C)(O)c1ccccc1CC[C@@H](SCC1(CC(=O)O)CC1)c1cccc(/C=C/c2ccc3ccc(Cl)cc3n2)c1 [Montelukast, montelukast]
[4]
  body weight vs vehicle treated counterparts: did not differ
[4]; listed as montelukast
  body weight vs vehicle treated counterparts: remained stable
[5]
  effect against kainic acid-induced cognitive dysfunction in combination with rofecoxib: potentiates the protective effect of rofecoxib
[3]; 1 μM
  NPC proliferation rate: did not alter
[3]; 10 μM
  NPC proliferation: increased proliferation
[3]; 15 μM
  NPC proliferation: increased proliferation
[3]; 30 μM
  NPC proliferation rate: did not alter
[3]; 50 μM
  NPC proliferation: significant reduction
[3]; 100 μM
  NPC proliferation: significant reduction
[6]; 15 μM
  NSC proliferation: significantly increase
[6]; 30 μM
  proliferative potential of the NSCs: significantly reduced
[6]; 100 μM
  proliferative potential of the NSCs: significantly reduced

## CCCCC/C=C\C\C=C/C=C/C=C/[C@@H](SC[C@H](N)C(=O)NCC(=O)O)[C@@H](O)CCCC(=O)O [Leukotriene D4]
[1]; 3 month old mice
  effect on cognition: induce cognitive impairment
[3]
  influence on the proliferation of NPCs: no influence
